Columns and labels:
[1] = test system: K-562; assay: Inhibition of cells growth by colorimetric assay (SRB), K-562; format: cell-based; settings: SRB, 48 hours exposure; for GI50 / LC50 (50% cell killing): Homo sapiens, K562, 48 h; for GI50 / TGI K-562: K-562; for GI50: read-out: GI50 K-562; for LC50 (50% cell killing): read-out: LC50 K-562, K-562
Procedure, shortened: (§1)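 Human cancer cells (5×10^3/well) attached 18 h in RPMI 1640 10% FBS, then exposed 48 h at 37°C to compounds from 10 to 10^−8 μg/ml in DMSO/EtOH/PBS. TCA-fixed, SRB-stained, OD read at 490 nm; GI, TGI and LC derived from triplicate wells.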

[2] = test system: A-549; assay: Inhibition of cells growth by colorimetric assay (SRB), A-549; format: cell-based; settings: SRB, 48 hours exposure; for GI50 / LC50 (concentration for 50% cell killing): Homo sapiens, A549, 48 h; for TGI A-549 / GI50: A-549; for GI50: read-out: GI50 A-549; for LC50 (concentration for 50% cell killing): read-out: LC50 A-549, A-549
Procedure, shortened: as §1

[3] = test system: SK-MEL-28; assay: Inhibition of cells growth by colorimetric assay (SRB), SK-MEL-28; format: cell-based; settings: SRB, 48 hours exposure; for GI50 / CC50: Homo sapiens, SK-MEL-28, 48 h; for GI50 / TGI MEL-28: MEL-28; for GI50: read-out: GI50 MEL-28; for CC50: read-out: LC50 MEL-28, MEL-28
Procedure, shortened: as §1

[4] = test system: HT-29; assay: Inhibition of cells growth by colorimetric assay (SRB), HT-29; format: cell-based; settings: SRB, 48 hours exposure; for GI50 / LC50 (concentration for 50% cell killing): Homo sapiens, HT-29, 48 h; for TGI HT-29 / GI50: HT-29; for GI50: read-out: GI50 HT-29; for LC50 (concentration for 50% cell killing): read-out: LC50 HT-29, HT-29
Procedure, shortened: as §1

[5] = test system: LoVo; assay: Inhibition of cells growth by colorimetric assay (SRB), LoVo; format: cell-based; settings: SRB, 48 hours exposure; for GI50 / LC50 (concentration for 50% cell killing): Homo sapiens, LoVo, 48 h; for GI50 / TGI LOVO: LOVO; for GI50: read-out: GI50 LOVO; for LC50 (concentration for 50% cell killing): read-out: LC50 LOVO, LOVO
Procedure, shortened: as §1

[6] = test system: LoVo-Dox; assay: Inhibition of cells growth by colorimetric assay (SRB), LoVo-Dox; format: cell-based; settings: SRB, 48 hours exposure; for GI50 / CC50: Homo sapiens, 48 h; for GI50 / TGI LOVO-DOX: LOVO-DOX; for GI50: read-out: GI50 LOVO-DOX; for CC50: read-out: LC50 LOVO-DOX, LOVO-DOX
Procedure, shortened: as §1

[7] = test system: DU-145; assay: Inhibition of cells growth by colorimetric assay (SRB), DU-145; format: cell-based; settings: SRB, 48 hours exposure; for GI50 / CC50: Homo sapiens, DU-145, 48 h; for TGI DU-145 / GI50: DU-145; for GI50: read-out: GI50 DU-145; for CC50: read-out: LC50 DU-145, DU-145
Procedure, shortened: as §1

[8] = test system: LNCaP; assay: Inhibition of cells growth by colorimetric assay (SRB), LNCaP; format: cell-based; settings: SRB, 48 hours exposure; for CC50 / GI50: Homo sapiens; for CC50: LNCaP, 48 h, read-out: LC50 LNCAP, LNCAP; for GI50 / TGI LNCAP: LNCAP; for GI50: read-out: GI50 LNCAP
Procedure, shortened: as §1

[9] = test system: SK-BR-3; assay: Inhibition of cells growth by colorimetric assay (SRB), SK-BR-3; format: cell-based; settings: SRB, 48 hours exposure; for GI50 / CC50: Homo sapiens, SK-BR-3, 48 h; for GI50 / TGI SK-BR3: SK-BR3; for GI50: read-out: GI50 SK-BR3; for CC50: read-out: LC50 SK-BR3, SK-BR3
Procedure, shortened: as §1

[10] = test system: IGROV-1; assay: Inhibition of cells growth by colorimetric assay (SRB), IGROV-1; format: cell-based; settings: SRB, 48 hours exposure; for GI50 / CC50: Homo sapiens, IGROV-1, 48 h; for GI50 / TGI IGROV: IGROV; for GI50: read-out: GI50 IGROV; for CC50: read-out: LC50 IGROV, IGROV
Procedure, shortened: as §1

[11] = test system: IGROV-ET; assay: Inhibition of cells growth by colorimetric assay (SRB), IGROV-ET; format: cell-based; settings: SRB, 48 hours exposure; for GI50 / CC50: Homo sapiens, 48 h; for GI50 / TGI IGROV-ET: IGROV-ET; for GI50: read-out: GI50 IGROV-ET; for CC50: read-out: LC50 IGROV-ET, IGROV-ET
Procedure, shortened: as §1

[12] = test system: SK-OV-3; assay: Inhibition of cells growth by colorimetric assay (SRB), SK-OV-3; format: cell-based; settings: SRB, 48 hours exposure; for GI50 / LC50: Homo sapiens, SK-OV-3, 48 h; for GI50 / TGI SK-OV3: SK-OV3; for GI50: read-out: GI50 SK-OV3; for LC50: read-out: LC50 SK-OV3, SK-OV3
Procedure, shortened: as §1

[13] = test system: PANC-1; assay: Inhibition of cells growth by colorimetric assay (SRB), PANC-1; format: cell-based; settings: SRB, 48 hours exposure; for GI50 / LC50 (concentration for 50% net cell kill): Homo sapiens, PANC-1, 48 h; for GI50 / TGI PANC-1: PANC-1; for GI50: read-out: GI50 PANC-1; for LC50 (concentration for 50% net cell kill): read-out: LC50 PANC-1, PANC-1
Procedure, shortened: as §1

[14] = test system: HMEC1; assay: Inhibition of cells growth by colorimetric assay (SRB), HMEC1; format: cell-based; settings: SRB, 48 hours exposure; for GI50 / LC50: Homo sapiens, HMEC-1, 48 h; for TGI HMEC-1 / GI50: HMEC-1; for GI50: read-out: GI50 HMEC-1; for LC50: read-out: LC50 HMEC-1, HMEC-1
Procedure, shortened: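 48 h SRB cytotoxicity assay; compound range 10–10^−8 μg/ml; seeding 5×10^3 cells/well, 18 h pre-attachment; OD 490 nm; GI, TGI, LC from triplicate means ± SD.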

[15] = test system: Liver
Text: (§2) Toxicity was asssessed by the methods reported in Toxicology in Vitro, 15 (2001) 571-577, J. Luber Narod et al.: “Evaluation of the use of in vitro methodolodies as tools for screening new compounds for potential in vivo toxicity”.

[16] = test system: Heart
Text: as §2

[17] = test system: Myelo
Text: as §2

[18] = test system: Skeletal
Text: as §2

[19] = test system: Kidney
Text: as §2

COc1cc2c(cc1OC)[C@@]1(CS[C@@H]3c4c(OC(C)=O)c(C)c5c(c4[C@H](COC1=O)N1C3[C@H]3c4c(cc(C)c(OC)c4O)C[C@@H]([C@@H]1O)N3C)OCO5)NCC2 (stereo partly shown) [Compound 67]
GI50 [1]: 0.118 nM | LC50 (50% cell killing) [1]: 0.8 nM | TGI K-562 [1]: 2.85E-10 | TGI A-549 [2]: 3.63E-09 | GI50 [2]: 1.31 nM | LC50 (concentration for 50% cell killing) [2]: 10.1 nM | GI50 [3]: 0.411 nM | CC50 [3]: 6.24 nM | TGI MEL-28 [3]: 9.90E-10 | TGI HT-29 [4]: 5.59E-09 | GI50 [4]: 0.741 nM | LC50 (concentration for 50% cell killing) [4]: 12900 nM | GI50 [5]: 0.602 nM | LC50 (concentration for 50% cell killing) [5]: 17.7 nM | TGI LOVO [5]: 3.34E-09 | GI50 [6]: 4.21 nM | CC50 [6]: 12800 nM | TGI LOVO-DOX [6]: 3.65E-08 | TGI DU-145 [7]: 8.61E-10 | GI50 [7]: 0.433 nM | CC50 [7]: 4470 nM | CC50 [8]: 0.844 nM | GI50 [8]: 0.307 nM | TGI LNCAP [8]: 5.09E-10 | GI50 [9]: 0.394 nM | CC50 [9]: 7.48 nM | TGI SK-BR3 [9]: 1.11E-09 | GI50 [10]: 0.266 nM | CC50 [10]: 1.21 nM | TGI IGROV [10]: 5.67E-10 | GI50 [11]: 1.88 nM | CC50 [11]: 4960 nM | TGI IGROV-ET [11]: 7.02E-09 | GI50 [12]: 0.385 nM | LC50 [12]: 7940 nM | TGI SK-OV3 [12]: 8.52E-10 | GI50 [13]: 0.443 nM | LC50 (concentration for 50% net cell kill) [13]: 2670 nM | TGI PANC-1 [13]: 1.09E-09 | TGI HMEC-1 [14]: 8.49E-09 | GI50 [14]: 1.02 nM | LC50 [14]: 5050 nM | Toxicity Data Liver [15]: 3.20E-08 | Toxicity Data Heart [16]: 4.54E-08 | Toxicity Data Myelo [17]: 3.27E-08 | Toxicity Data Skeletal [18]: 2.37E-08 | Toxicity Data Kidney [19]: 5.36E-08

COc1cc2c(cc1OC(=O)c1cc3ccccc3oc1=O)CCN[C@]21CS[C@@H]2c3c(OC(C)=O)c(C)c4c(c3[C@H](COC1=O)N1C2[C@H]2c3c(cc(C)c(OC)c3O)C[C@@H]([C@@H]1O)N2C)OCO4 (stereo partly shown) [Compound 76]
GI50 [1]: 0.00278 nM | LC50 (50% cell killing) [1]: 0.351 nM | TGI K-562 [1]: 3.78E-11 | TGI A-549 [2]: 4.31E-09 | GI50 [2]: 2.06 nM | LC50 (concentration for 50% cell killing) [2]: 9.07 nM | GI50 [3]: 0.622 nM | CC50 [3]: 8.28 nM | TGI MEL-28 [3]: 2.51E-09 | TGI HT-29 [4]: 6.18E-09 | GI50 [4]: 1.28 nM | LC50 (concentration for 50% cell killing) [4]: 4520 nM | GI50 [5]: 1.03 nM | LC50 (concentration for 50% cell killing) [5]: 10.8 nM | TGI LOVO [5]: 3.30E-09 | GI50 [6]: 13.9 nM | CC50 [6]: 107 nM | TGI LOVO-DOX [6]: 4.70E-08 | TGI DU-145 [7]: 6.16E-10 | GI50 [7]: 0.249 nM | CC50 [7]: 2140 nM | CC50 [8]: 0.891 nM | GI50 [8]: 0.217 nM | TGI LNCAP [8]: 4.40E-10 | GI50 [9]: 0.337 nM | CC50 [9]: 6.17 nM | TGI SK-BR3 [9]: 1.24E-09 | GI50 [10]: 0.192 nM | CC50 [10]: 1.66 nM | TGI IGROV [10]: 4.56E-10 | GI50 [11]: 1.52 nM | CC50 [11]: 21 nM | TGI IGROV-ET [11]: 3.92E-09 | GI50 [12]: 0.293 nM | LC50 [12]: 4810 nM | TGI SK-OV3 [12]: 8.93E-10 | GI50 [13]: 1.22 nM | LC50 (concentration for 50% net cell kill) [13]: 44.1 nM | TGI PANC-1 [13]: 4.68E-09 | TGI HMEC-1 [14]: 6.55E-09 | GI50 [14]: 1.83 nM | LC50 [14]: 186 nM | Toxicity Data Liver [15]: 1.35E-08 | Toxicity Data Heart [16]: 1.62E-08 | Toxicity Data Myelo [17]: 8.19E-09 | Toxicity Data Skeletal [18]: 2.15E-09 | Toxicity Data Kidney [19]: 3.20E-09
